Source: PubChem BioAssay AID248 (DTP/NCI, 2004)
“And” between values parts separate entries of the source, which are not always exact repeats. Equal values may be shown once. Inconclusive results and toxic doses are left out. No stated cut-off is given here; in the data, active means T/C of 150% or more; inactive means T/C below 125%.

Test system: L1210 leukemia ip in BDF1 mice, survival T/C
Experiment: NCI In Vivo Anticancer Drug Screen. Data for tumor model L1210 Leukemia (intraperitoneal) in B6D2F1 (BDF1) mice
Conditions: endpoint: mean survival time, higher = longer survival
Outline: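 Each compound was tested against a transplantable tumor grown in mice. The endpoint was survival, with treated animals benchmarked against vehicle controls as a simple ratio.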

[1] = dose: 100.0 mg/kg/injection, schedule: Q04DX002 (ip), vehicle: Klucel (hydroxypropylcellulose) (HPC)
[2] = dose: 200.0 mg/kg/injection, schedule: Q04DX002 (ip), vehicle: Klucel (hydroxypropylcellulose) (HPC)
[3] = dose: 400.0 mg/kg/injection, schedule: Q04DX002 (ip), vehicle: Klucel (hydroxypropylcellulose) (HPC)
[4] = dose: 100.0 mg/kg/injection, schedule: Q01DX009 (ip), vehicle: saline with Tween-80
[5] = dose: 200.0 mg/kg/injection, schedule: Q01DX009 (ip), vehicle: saline with Tween-80
[6] = dose: 100.0 mg/kg/injection, schedule: Q01DX009 (ip), vehicle: saline
[7] = dose: 100.0 mg/kg/injection, schedule: Q04DX003 (ip), vehicle: saline
[8] = dose: 200.0 mg/kg/injection, schedule: Q01DX009 (ip), vehicle: saline
[9] = dose: 200.0 mg/kg/injection, schedule: Q04DX003 (ip), vehicle: saline
[10] = dose: 400.0 mg/kg/injection, schedule: Q04DX003 (ip), vehicle: saline
[11] = dose: 100.0 mg/kg/injection, schedule: Q01DX001 (ip), vehicle: saline with Tween-80
[12] = dose: 400.0 mg/kg/injection, schedule: Q01DX001 (ip), vehicle: saline with Tween-80
[13] = dose: 400.0 mg/kg/injection, schedule: Q01DX009 (ip), vehicle: saline
[14] = dose: 100.0 mg/kg/injection, schedule: Q04DX003 (ip), vehicle: saline with Tween-80
[15] = dose: 200.0 mg/kg/injection, schedule: Q04DX003 (ip), vehicle: saline with Tween-80
[16] = dose: 400.0 mg/kg/injection, schedule: Q04DX003 (ip), vehicle: saline with Tween-80
[17] = dose: 50.0 mg/kg/injection, schedule: Q01DX009 (ip), vehicle: saline
[18] = dose: 50.0 mg/kg/injection, schedule: Q01DX001 (ip), vehicle: saline
[19] = dose: 100.0 mg/kg/injection, schedule: Q01DX001 (ip), vehicle: saline
[20] = dose: 200.0 mg/kg/injection, schedule: Q01DX001 (ip), vehicle: saline
[21] = dose: 400.0 mg/kg/injection, schedule: Q01DX001 (ip), vehicle: saline

Measured: T/C

COC1OC(COC(c2ccccc2)(c2ccccc2)c2ccccc2)C(OC)C(OC(C)=O)C1OC(C)=O (configuration not stated)
inactive: dose: 25.0 mg/kg/injection, schedule: Q04DX002 (ip), vehicle: Klucel (hydroxypropylcellulose) (HPC) 95 % of control | dose: 50.0 mg/kg/injection, schedule: Q04DX002 (ip), vehicle: Klucel (hydroxypropylcellulose) (HPC) 95 % of control | [1] 92 % of control | [2] 102 % of control | [3] 90 % of control

CC(=O)OC(C)(C)/C=C/C(=O)[C@](C)(O)[C@H]1[C@H](O)C[C@@]2(C)[C@@H]3CC=C4[C@@H](CC[C@H](O)C4(C)C)[C@]3(CO)C(=O)C[C@]12C
inactive: dose: 0.57 mg/kg/injection, schedule: Q01DX Z (ip), vehicle: saline 106 % of control | dose: 0.86 mg/kg/injection, schedule: Q01DX Z (ip), vehicle: saline 106 % of control | dose: 1.3 mg/kg/injection, schedule: Q01DX Z (ip), vehicle: saline 112 % of control

O=C(NCCO)c1ccc(Br)cc1
inactive: dose: 50.0 mg/kg/injection, schedule: Q01DX009 (ip), vehicle: saline with Tween-80 97 % of control | [4] 97 % of control | [5] 90 % of control

CC(O)C(C)(O)C(=O)O (configuration not stated)
inactive: [6] 100 % of control | [7] 104 % of control | [8] 90 % of control | [9] 95 % of control | [10] 101 % of control

OC1(c2ccccc2)c2cscc2C(O)(c2ccccc2)c2c(Cl)sc(Cl)c21 (configuration not stated)
inactive: [11] 91 % of control | [12] 87 % of control

CCOC(=O)CNCc1cccnc1
inactive: [6] 97 % of control | [7] 95 % of control | [8] 94 % of control | [9] 87 % of control | [13] 95 % of control | [10] 102 % of control

COc1cc(C(=O)OCCN(C(C)C)C(C)C)cc(OC)c1OC
inactive: [7] 101 % of control | [9] 95 % of control

COC(=O)C1CN1C(c1ccccc1)(c1ccccc1)c1ccccc1 (configuration not stated)
inactive: [11] 92 % of control | [14] 94 % of control | dose: 200.0 mg/kg/injection, schedule: Q01DX001 (ip), vehicle: saline with Tween-80 100 % of control | [15] 98 % of control | [12] 90 % of control | [16] 90 % of control

CC1CCCC(C)N1C(=O)Nc1cccc(C(F)(F)F)c1 (configuration not stated)
inactive: dose: 100.0 mg/kg/injection, schedule: Q01DX009 (ip), vehicle: gum acacia 108 % of control | dose: 200.0 mg/kg/injection, schedule: Q01DX009 (ip), vehicle: gum acacia 103 % of control

Cc1cc(C)n(CO)n1
inactive: dose: 100.0 mg/kg/injection, schedule: Q01DX009 (ip), vehicle: Klucel (hydroxypropylcellulose) (HPC) 107 % of control | dose: 100.0 mg/kg/injection, schedule: Q04DX003 (ip), vehicle: Klucel (hydroxypropylcellulose) (HPC) 100 % of control | dose: 200.0 mg/kg/injection, schedule: Q01DX009 (ip), vehicle: Klucel (hydroxypropylcellulose) (HPC) 108 % of control | dose: 200.0 mg/kg/injection, schedule: Q04DX003 (ip), vehicle: Klucel (hydroxypropylcellulose) (HPC) 110 % of control | dose: 400.0 mg/kg/injection, schedule: Q04DX003 (ip), vehicle: Klucel (hydroxypropylcellulose) (HPC) 112 % of control

NC1CCC(CC2CC3CCC2C3)CC1 (configuration not stated)
inactive: dose: 12.5 mg/kg/injection, schedule: Q01DX009 (ip), vehicle: saline 98 % of control | dose: 25.0 mg/kg/injection, schedule: Q01DX009 (ip), vehicle: saline 91 % of control | dose: 25.0 mg/kg/injection, schedule: Q04DX003 (ip), vehicle: saline 100 % of control | [17] 100 % of control | dose: 50.0 mg/kg/injection, schedule: Q04DX003 (ip), vehicle: saline 96 % of control | [6] 90 % of control | [7] 96 % of control

CC1(C)OCC(C2OC3OC(c4ccccc4)=NC3C2O)O1 (configuration not stated)
inactive: dose: 100.0 mg/kg/injection, schedule: Q01DX001 (ip), vehicle: Klucel (hydroxypropylcellulose) (HPC) 96 % of control | dose: 200.0 mg/kg/injection, schedule: Q01DX001 (ip), vehicle: Klucel (hydroxypropylcellulose) (HPC) 104 % of control | dose: 400.0 mg/kg/injection, schedule: Q01DX001 (ip), vehicle: Klucel (hydroxypropylcellulose) (HPC) 101 % of control

O=C(NCCO)C1OCOC2C(CO)OCOC12 (configuration not stated)
inactive: dose: 12.5 mg/kg/injection, schedule: Q04DX002 (ip), vehicle: saline 101 % of control | dose: 25.0 mg/kg/injection, schedule: Q04DX002 (ip), vehicle: saline 101 % of control | dose: 50.0 mg/kg/injection, schedule: Q04DX002 (ip), vehicle: saline 101 % of control | dose: 100.0 mg/kg/injection, schedule: Q04DX002 (ip), vehicle: saline 93 % of control

CCOC(=O)CC(C)(C)CC(=O)C1CNC2=C(C1)C(=O)CC(C)(C)C2 (configuration not stated)
inactive: dose: 100.0 mg/kg/injection, schedule: Q01DX005 (ip), vehicle: Klucel (hydroxypropylcellulose) (HPC) 102 % of control | [1] 89 % of control | dose: 200.0 mg/kg/injection, schedule: Q01DX005 (ip), vehicle: Klucel (hydroxypropylcellulose) (HPC) 118 % of control | [2] 92 % of control | dose: 400.0 mg/kg/injection, schedule: Q01DX005 (ip), vehicle: Klucel (hydroxypropylcellulose) (HPC) 91 % of control | [3] 97 % of control

CCN(CC)C(=O)Nc1cccc([N+](=O)[O-])c1
inactive: [1] 104 % of control | [2] 97 % of control | [3] 101 % of control

Cn1cc2c(=O)n(OS(=O)(=O)c3ccccc3)c(=O)[nH]c2n1
inactive: [18] 106 % of control | [19] 93 % of control | [20] 106 % of control | [21] 100 % of control

C[n+]1c(/C=C/c2ccc(O)c3ncccc23)[se]c2ccccc21
inactive: dose: 100.0 mg/kg/injection, schedule: Q01DX001 (ip), vehicle: carboxymethylcellulose (CMC) 95 % of control | [7] 108 % of control | dose: 200.0 mg/kg/injection, schedule: Q01DX001 (ip), vehicle: carboxymethylcellulose (CMC) 100 % of control | [9] 110 % of control | dose: 400.0 mg/kg/injection, schedule: Q01DX001 (ip), vehicle: carboxymethylcellulose (CMC) 105 % of control | [10] 105 % of control

CC(C)C(NCCNC(C(C)C)C(C)C)C(C)C
inactive: [17] 106 % of control | [6] 102 % of control | [8] 106 % of control

COc1cccc2c1CCC1=C2CC2C(=O)C1CCC2(C)O (configuration not stated)
inactive: [6] 109 % of control | [7] 94 % of control | [8] 108 % of control | [9] 119 % of control | [13] 101 % of control | [10] 110 % of control

COc1cc(C=O)ccc1OCc1ccccc1
inactive: [4] 96 % of control and 93 % of control | [14] 110 % of control | [5] 96 % of control | [15] 94 % of control | dose: 400.0 mg/kg/injection, schedule: Q01DX009 (ip), vehicle: saline with Tween-80 98 % of control and 93 % of control | [16] 100 % of control

c1ccc([P+](c2ccccc2)(c2ccccc2)c2ccc([P+](c3ccccc3)(c3ccccc3)c3ccccc3)cc2)cc1
inactive: dose: 3.13 mg/kg/injection, schedule: Q04DX003 (ip), vehicle: saline 106 % of control | dose: 6.25 mg/kg/injection, schedule: Q04DX003 (ip), vehicle: saline 109 % of control | dose: 12.5 mg/kg/injection, schedule: Q04DX003 (ip), vehicle: saline 93 % of control and 102 % of control

CC(=O)OCC1OC(n2ncc3c(=S)nc[nH]c32)C(OC(C)=O)C1OC(C)=O (configuration not stated)
inactive: dose: 12.5 mg/kg/injection, schedule: Q01DX005 (ip), vehicle: other 98 % of control | dose: 25.0 mg/kg/injection, schedule: Q01DX005 (ip), vehicle: other 95 % of control | dose: 50.0 mg/kg/injection, schedule: Q01DX005 (ip), vehicle: other 104 % of control | dose: 100.0 mg/kg/injection, schedule: Q01DX005 (ip), vehicle: other 97 % of control | dose: 200.0 mg/kg/injection, schedule: Q01DX005 (ip), vehicle: other 93 % of control

CC(C)(C)/C([O-])=N/[N+](C)(C)C
inactive: [19] 108 % of control | [20] 97 % of control | [21] 101 % of control

CON(C)c1nc2ccccc2o1
inactive: [18] 103 % of control | [19] 100 % of control | [20] 100 % of control | [21] 100 % of control
